Columns and labels:
[1] = target: T1, Glucagon-like peptide 1 receptor (Homo sapiens, UniProt P43220); assay: Effective concentration against human GLP1 receptor expressed in CHO cells; assay type: cell-based
[2] = target: T1, Glucagon-like peptide 1 receptor; assay: Inhibitory concentration required against human GLP1 receptor expressed in CHO cell membrane homogenates; assay type: cell-based

T1 sequence (P43220 whole entry): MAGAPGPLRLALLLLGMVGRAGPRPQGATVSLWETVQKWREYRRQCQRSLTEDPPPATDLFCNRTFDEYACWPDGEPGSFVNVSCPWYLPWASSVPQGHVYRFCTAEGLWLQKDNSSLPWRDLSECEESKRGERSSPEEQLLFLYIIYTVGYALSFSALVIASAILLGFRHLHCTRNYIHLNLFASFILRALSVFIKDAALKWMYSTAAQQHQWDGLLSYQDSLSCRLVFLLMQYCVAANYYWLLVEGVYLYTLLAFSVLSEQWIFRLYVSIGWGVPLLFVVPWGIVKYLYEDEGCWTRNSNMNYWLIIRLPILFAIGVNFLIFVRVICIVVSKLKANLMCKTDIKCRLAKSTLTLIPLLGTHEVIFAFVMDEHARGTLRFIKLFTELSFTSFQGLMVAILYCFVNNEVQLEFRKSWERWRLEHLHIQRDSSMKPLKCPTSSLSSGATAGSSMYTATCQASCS

| EC50 [1] [nM] | IC50 [2] [nM] | Compound |
| --- | --- | --- |
| 28 | 713 | CC[C@H](C)[C@H](NC(=O)[C@H](Cc1ccccc1)NC(=O)[C@H](CCC(=O)O)NC(=O)[C@H](CCCCN)NC(=O)[C@H](C)NC(=O)[C@H](C)NC(=O)[C@H](CCC(N)=O)NC(=O)CNC(=O)[C@H](CCC(=O)O)NC(=O)[C@H](CC(C)C)NC(=O)[C@H](Cc1ccc(O)cc1)NC(=O)[C@H](CCCCNC(=O)COCCOCCNC(=O)CCN1C(=O)C=CC1=O)NC(=O)[C@H](CO)NC(=O)[C@@H](NC(=O)[C@H](CC(=O)O)NC(=O)[C@H](CO)NC(=O)[C@@H](NC(=O)[C@H](Cc1ccccc1)NC(=O)[C@@H](NC(=O)CNC(=O)[C@H](CCC(=O)O)NC(=O)[C@H](C)NC(=O)[C@@H](N)Cc1c[nH]cn1)[C@@H](C)O)[C@@H](C)O)C(C)C)C(=O)N[C@@H](C)C(=O)N[C@@H](Cc1c[nH]c2ccccc12)C(=O)N[C@@H](CC(C)C)C(=O)N[C@H](C(=O)N[C@@H](CCCCN)C(=O)NCC(=O)N[C@@H](CCCN=C(N)N)C(N)=O)C(C)C |
| > 1000 | > 10000 | CC[C@H](C)[C@H](NC(=O)[C@H](CCCCNC(=O)COCCOCCNC(=O)CCN1C(=O)C=CC1=O)NC(=O)[C@H](CCC(=O)O)NC(=O)[C@H](CCCCN)NC(=O)[C@H](C)NC(=O)[C@H](C)NC(=O)[C@H](CCC(N)=O)NC(=O)CNC(=O)[C@H](CCC(=O)O)NC(=O)[C@H](CC(C)C)NC(=O)[C@H](Cc1ccc(O)cc1)NC(=O)[C@H](CO)NC(=O)[C@H](CO)NC(=O)[C@@H](NC(=O)[C@H](CC(=O)O)NC(=O)[C@H](CO)NC(=O)[C@@H](NC(=O)[C@H](Cc1ccccc1)NC(=O)[C@@H](NC(=O)CNC(=O)[C@H](CCC(=O)O)NC(=O)[C@H](C)NC(=O)[C@@H](N)Cc1c[nH]cn1)[C@@H](C)O)[C@@H](C)O)C(C)C)C(=O)N[C@@H](C)C(=O)N[C@@H](Cc1c[nH]c2ccccc12)C(=O)N[C@@H](CC(C)C)C(=O)N[C@H](C(=O)N[C@@H](CCCCN)C(=O)NCC(=O)N[C@@H](CCCN=C(N)N)C(N)=O)C(C)C |

— ChEMBL document CHEMBL1137923, “Identification of CJC-1131-albumin bioconjugate as a stable and bioactive GLP-1(7-36) analog” (Bioorg Med Chem Lett, 2004)
